Results: publication PMC8235151, “Glycoside Hydrolases and Non-Enzymatic Glycation Inhibitory Potential of Viburnum opulus L. Fruit—In Vitro Studies” (Antioxidants, 2021)
Converted amounts (≈) assume the structure as drawn. “Also recorded” adds a separate entry of the source.

Experiments:
[1] = target: rat intestinal α-glucosidase; experiment: α-glucosidase inhibition assay (glucose release from disaccharide); assay type: biochemical
Method: The assessment of the α-glucosidase activity was slightly modified according to […] et al. and Gao et al.. […] Enzyme isolation was performed in an ultrasonic cleaner (for 30 sec) in an ice bath, then 30 sec without ultrasonic. This step was repeated 12 times. After that, the solution was centrifuged at 4 °C (3000 rpm, 30 min). 50 μL of diluted V. opulus samples were mixed with 50 μL of enzyme supernatant (diluted 2 times for reaction with maltose). After incubation at 37 °C for 10 min, 50 μL of substrate (0.1 M maltose or 0.5 M sucrose solution prepared in 0.1 M phosphate buffer, pH 6.9) was added and incubated in a 96-well microplate at 37 °C for 20 min for maltose and 60 min for sucrose. The reaction was stopped by adding 150 μL of 2 M Tris-HCl buffer (pH 7.0). The concentration of glucose released from the reaction mixture was determined by the commercial glucose test (BIOMAXIMA SA, Lublin, Poland).

[2] = target: T1, α-amylase from porcine pancreas (Sus scrofa, UniProt P00690); experiment: Mode of α-amylase inhibition (Lineweaver-Burk); assay type: biochemical; settings: for type of inhibition against α-amylase: regardless of the type of starch
T1 construct: α-amylase from porcine pancreas type VI-B; purchased Sigma Aldrich (Steinheim, Germany) type VI-B (catalogue number not given); host or cells: porcine pancreas
T1 sequence (P00690 16-511): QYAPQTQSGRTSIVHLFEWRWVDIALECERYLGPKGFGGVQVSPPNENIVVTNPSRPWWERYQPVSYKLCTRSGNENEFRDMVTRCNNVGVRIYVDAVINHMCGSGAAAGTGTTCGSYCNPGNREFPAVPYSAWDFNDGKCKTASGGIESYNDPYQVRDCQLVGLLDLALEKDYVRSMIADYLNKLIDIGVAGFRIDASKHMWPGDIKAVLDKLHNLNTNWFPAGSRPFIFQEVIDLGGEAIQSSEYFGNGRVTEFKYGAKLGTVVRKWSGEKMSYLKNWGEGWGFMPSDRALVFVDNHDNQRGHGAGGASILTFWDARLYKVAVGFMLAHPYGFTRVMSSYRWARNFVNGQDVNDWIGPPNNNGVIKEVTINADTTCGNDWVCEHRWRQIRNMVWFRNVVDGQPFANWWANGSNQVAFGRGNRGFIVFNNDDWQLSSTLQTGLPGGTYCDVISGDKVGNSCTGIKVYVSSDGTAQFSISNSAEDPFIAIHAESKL
Method: (§1) The α-amylase inhibition assay was based on a previously-described spectrophotometric method with some modifications. All reagents were prepared with 0.1 M phosphate buffer containing 6 mM CaCl2 (pH 6.9). Briefly, 20 µL of diluted V. opulus samples and 40 µL of potato starch (0.83 g/L) or starch from rice (1 g/L) solution were mixed with 20 µL of α-amylase (0.1 mg/mL for potato starch and 0.2 mg/mL for starch from rice) in a 96-well plate. […] The absorbance was read at 600 nm using a microplate reader (Synergy2, Biotek Instruments Inc., Winooski, VT, USA). […] Each sample was measured in triplicate.
The enzymes activities without and with tested samples were studied using the methods described in Section 2.5 and Section 2.6. A double reciprocal graph (1/v versus 1/S, where “v” is the reaction rate and “S” the concentration of the substrate), was plotted. All samples were tested at three different doses using six concentrations of substrate.

[3] = tested on: rat intestinal α-glucosidase; experiment: Mode of α-glucosidase inhibition (Lineweaver-Burk); assay type: biochemical; settings: for type of inhibition against α-glucosidase: regardless of the type of disaccharide
Method: The assessment of the α-glucosidase activity was slightly modified according to […] et al. and Gao et al.. […] Enzyme isolation was performed in an ultrasonic cleaner (for 30 sec) in an ice bath, then 30 sec without ultrasonic. […] After that, the solution was centrifuged at 4 °C (3000 rpm, 30 min). 50 μL of diluted V. opulus samples were mixed with 50 μL of enzyme supernatant (diluted 2 times for reaction with maltose). After incubation at 37 °C for 10 min, 50 μL of substrate (0.1 M maltose or 0.5 M sucrose solution prepared in 0.1 M phosphate buffer, pH 6.9) was added and incubated in a 96-well microplate at 37 °C for 20 min for maltose and 60 min for sucrose. The reaction was stopped by adding 150 μL of 2 M Tris-HCl buffer (pH 7.0). The concentration of glucose released from the reaction mixture was determined by the commercial glucose test (BIOMAXIMA SA, Lublin, Poland). […] A double reciprocal graph (1/v versus 1/S, where “v” is the reaction rate and “S” the concentration of the substrate), was plotted. All samples were tested at three different doses using six concentrations of substrate.

[4] = tested on: AGE formation (BSA-glucose model); experiment: Protein glycation inhibition assay, BSA-glucose model; assay type: biochemical, bovine; settings: 37 °C, 13 days
Method: The bovine serum albumin (BSA) and glucose/fructose assay was carried according to the method of Błaszczak et al. [45] with some modifications. We prepared 25 mL of the test solution containing D-glucose or D-fructose (1.0 M), BSA (10 mg/mL) and sodium azide (0.1 mg/mL) in the phosphate buffer (0.1 M, pH 7.4). The test solution (1 mL) was incubated in the dark at 37 °C for 13 days for glucose and for 6 days for fructose with or without 0.5 mL of tested V. opulus samples. […] Next, the formation of AGE was evaluated based on fluorescence intensity at λ = 330 nm (excitation wave) and λ = 460 nm (emission wave). Fluorescence intensity was measured in 96-well plates (black, OptiPlate-96 F, PerkinElmer, UK) in a microplate reader (Synergy2, BioTek Instruments Inc., Winooski, VT, USA).

[5] = tested on: AGE formation (BSA-fructose model); experiment: Protein glycation inhibition assay, BSA-fructose model; assay type: biochemical, bovine; settings: 37 °C, 6 days
Method: The bovine serum albumin (BSA) and glucose/fructose assay was carried according to the method of Błaszczak et al. with some modifications. We prepared 25 mL of the test solution containing D-glucose or D-fructose (1.0 M), BSA (10 mg/mL) and sodium azide (0.1 mg/mL) in the phosphate buffer (0.1 M, pH 7.4). The test solution (1 mL) was incubated in the dark at 37 °C for 13 days for glucose and for 6 days for fructose with or without 0.5 mL of tested V. opulus samples. […] Next, the formation of AGE was evaluated based on fluorescence intensity at λ = 330 nm (excitation wave) and λ = 460 nm (emission wave). Fluorescence intensity was measured in 96-well plates (black, OptiPlate-96 F, PerkinElmer, UK) in a microplate reader (Synergy2, BioTek Instruments Inc., Winooski, VT, USA).

[6] = target: T2, α-amylase from porcine pancreas type VI-B (Sus scrofa, UniProt P00690); experiment: α-amylase inhibition assay (starch-iodine, spectrophotometric); assay type: biochemical
T2 construct: α-amylase from porcine pancreas type VI-B; purchased Sigma Aldrich (Steinheim, Germany) type VI-B (catalogue number not given); host or cells: porcine pancreas
T2 sequence (P00690 16-511): T1 sequence (P00690 16-511)
Method: as §1

α-amylase = target: T3, α-amylase (Sus scrofa, UniProt P00690); parameters: method as in doi:10.3390/pr8111388; settings: cited from earlier work
T3 construct: purchased Sigma Aldrich (Steinheim, Germany) type VI-B (catalogue number not given); host or cells: porcine pancreas
T3 sequence (P00690 16-511): T1 sequence (P00690 16-511)

[7] = target: maltase from rat small intestine; parameters: method as in PMID 16787002; settings: cited from earlier work
[8] = tested on: porcine pancreatic α-amylase; settings: potato and maize starch; cited from earlier work
[9] = target: sucrase from rat small intestine; parameters: method as in PMID 16787002; settings: cited from earlier work
[10] = target: α-amylase porcine pancreas; parameters: method as in PMID 16787002; settings: cited from earlier work

C[C@H]1O[C@H](O[C@H]2[C@H](O)[C@@H](O)[C@@H](O[C@H]3[C@H](O)[C@@H](O)C(O)O[C@@H]3CO)O[C@@H]2CO)[C@H](O)[C@@H](O)[C@@H]1N[C@H]1C=C(CO)[C@@H](O)[C@H](O)[C@H]1O (some centres unmarked) [Acarbose, acarbose]
IC50 for the inhibition of α-glucosidase ([1]; substrate maltose): 0.051 ± 0.001a µg/mL | IC50 for the inhibition of α-glucosidase ([1]; substrate sucrose): 1.37 ± 0.04a µg/mL | Inhibition Type ([2]; potato starch): uncompetitive | type of inhibition against α-amylase [2]: uncompetitive; also recorded: uncompetitively | Inhibition Type ([2]; rice starch): uncompetitive | Inhibition Type ([3]; maltose): mixed | Ki ([3]; maltose): / 0.021 μg/mL | type of inhibition against α-glucosidase [3]: mixed type of inhibition (competitive and noncompetitive); also recorded: mixed mode of inhibition | Inhibition Type ([3]; sucrose): mixed | Ki ([3]; sucrose): / 1.52 μg/mL

Cl.N=C(N)NN [Aminoguanidine, aminoguanidine hydrochloride]
IC50 for the inhibition of AGE formation [4]: 137.80 ± 3.44a µg/mL | IC50 for the inhibition of AGE formation [5]: 106.08 ± 3.17 µg·days/mL

O=C(/C=C/c1ccc(O)c(O)c1)O[C@@H]1C[C@](O)(C(=O)O)C[C@@H](O)[C@H]1O [Chlorogenic acid]
IC50 towards α-amylase higher than IC50 for CE, on average ([6]; average of both starches): 2.7 fold | IC50 towards α-amylase higher than IC50 for PE, on average ([6]; average of both starches): 14 fold | IC50 ([6]; substrate potato starch): 2.35 mM | IC50 ([6]; substrate starch from rice): 5.54 mM | lower inhibitory activity against α-amylase compared to acarbose (α-amylase): 5 fold | IC50 for the inhibition of AGE formation [5]: 58.87 ± 0.93c µg/mL | lower inhibitory activity against α-glucosidase than PEAF ([1]; maltose): 1.7 fold | IC50 for the inhibition of α-glucosidase ([1]; substrate maltose): 103.37 ± 5.29bc µg/mL | IC50 for the inhibition of α-glucosidase ([1]; substrate sucrose): 99.81 ± 0.75ab µg/mL | IC50 against maltase [7]: 8810 µg/mL (≈ 24.9 mM) | Inhibition Type ([2]; potato starch): competitive | Ki ([2]; potato starch): 3.46 mM | type of inhibition against α-amylase [2]: competitive | Inhibition Type ([2]; rice starch): competitive | Ki ([2]; rice starch): 5.32 mM | type of inhibitory effect on α-amylase hydrolysis of starch [8]: mixed type inhibitory effect | IC50 against sucrase [9]: 500 µg/mL (≈ 1.41 mM) | IC50 on α-amylase [10]: 13170 µg/mL (≈ 37.2 mM) | Inhibition Type ([3]; maltose): noncompetitive | Ki ([3]; maltose): / 145.41 μg/mL | type of inhibition against α-glucosidase [3]: noncompetitive-type inhibition | Inhibition Type ([3]; sucrose): noncompetitive | Ki ([3]; sucrose): / 181.21 μg/mL
